Reference: patent EP1360959A1, “Use of 8-prenylflavanones for anti-angiogenesis therapy and for fibrinolytic therapy” (Schering Aktiengesellschaft, priority 2002, dated 2003)
Read-outs that look alike come from different tables or passages of the source.

Tests used:
Format in all cases: cell-based, Bovine
[1] = test system: BME cells; experiment: In vitro angiogenesis assay (invasion of three-dimensional collagen gels)
Excerpt: bFGF and VEGF induce BME and BAE cells to invade three-dimensional collagen gels, and this is accompanied by the formation of capillary like tubular structures (Montesano et al., Proc. Natl. Acad. Sci. USA 83: 7297-7301, 1986; Pepper et al., Biochem. Biophys. Res. Comm. 189: 824-831, 1992; Pepper et al., Exp. Cell Res. 204: 356-363, 1993, Pepper et al., J. Cell Sci. 108: 73-83, 1995). In addition, bFGF and VEGF induce a synergistic invasive response in BME and BAE cells (Pepper et al., 1992, Biochem. Biophys. Res. Commun. 189: 824-831; Pepper et al 1995, J. Cell Sci. 108: 73-83).
Three-dimensional collagen gels were prepared as described (Montesano et al., Cell 42: 469-477, 1985): 8 volumes of a solution of type I collagen from rat tail tendons (approximately 1.5mg/ml) were mixed with 1 volume of 10x minimal essential medium and 1 volume of sodium bicarbonate (11.76mg/ml) on ice, dispensed into 18mm tissue culture wells, and allowed to gel at 37 °C for 10 minutes. […] Invasion was quantitated by determining the total additive length of all cellular structures which had penetrated beneath the surface monolayer either as apparently single cells or in the form of cell cords (Pepper et al., Biochem. Biophys. Res. Comm. 189: 824-831, 1992). Results are expressed as the mean total additive sprout length in µm ± s.e.m., and are from three separate experiments per condition. […]

[2] = test system: BME cells; experiment: 5 day proliferation assay; conditions: Bos taurus; for inhibition at 30 µM: maximal inhibitory effect, read-out: % inhibition of BME cell proliferation
Method: BME cells were seeded into gelatin-coated wells of 24 well plates at 10'000 cells per well in α-MEM supplemented with 5% DCS. 24 hours later, fresh medium was added together with 8-Prenylnaringenin at the indicated concentrations or TGF-β1 (1ng/ml), and bFGF (10ng/ml) was added to half the wells. 2 days later, medium and compounds were renewed, and after a further 3 days (i.e. 5 day assay), cells were trypsinized and counted in a FACScan Analyzer. Results are shown as % inhibition calculated from the mean of duplicate wells.
8-Prenylnaringenin reduces endothelial cell number in a 5 day proliferation assay. BME cells were seeded into 24 well plates at 10'000 cells per well in medium containing 5% DCS. 24 hours later, cells were treated with 8-Prenylnaringenin at the indicated concentrations or with TGF-β1 (1ng/ml), and bFGF (10ng/ml) was added to half the wells. Results are shown as % inhibition calculated from the mean of duplicate wells.

[3] = test system: uPA; experiment: Zymography of cell extracts, uPA activity, BME cells; conditions: 15 hours, serum-free
Method: (§1) Confluent monolayers of BME or BAE cells in 35mm gelatin-coated tissue culture dishes were washed twice with serum-free medium, and were treated with (±)-8-Prenylnaringenin in the absence or presence of bFGF or VEGF in serum-free medium containing Trasylol (200 Kallikrein Inhibitory Units/ml). 15 hours later, cell extracts were prepared and analyzed by zymography and reverse zymography as previously described (Vassalli et al., 1984, J. Exp. Med. 159: 1653-1668).
(§2) Cell extracts (CE) and culture supernatants (Sup) prepared from BME cells incubated with (±)-8-prenylnaringenin at the indicated concentrations in the absence or presence of bFGF (10ng/ml) for 15 hours, were subjected to zymography (uPA, tPA and tPA/PAI-1 complex activities) and reverse zymography (PAI-1 activity)

[4] = test system: tPA; experiment: Zymography of cell extracts, tPA activity, BME cells
Method: as §1, §2

[5] = test system: PAI-1; experiment: Reverse zymography, PAI-1 activity, BME cells; conditions: 15 hours, serum-free
Method: as §1, §2

[6] = test system: uPA; experiment: Zymography of cell extracts, uPA activity, BAE cells
Method: as §1
as §2, with “BAE” for “BME”, “(3ng/ml)” for “(10ng/ml)”, “activity). The second panel marked CE is a longer incubation of the gel shown in the top panel.” for “activity)”

[7] = test system: tPA; experiment: Zymography of cell extracts, tPA activity, BAE cells
Method: as §1
as §2, with “BAE” for “BME”, “(3ng/ml)” for “(10ng/ml)”, “activity). The second panel marked CE is a longer incubation of the gel shown in the top panel.” for “activity)”

[8] = test system: PAI-1; experiment: Reverse zymography, PAI-1 activity, BAE cells
Method: as §1
as §2, with “BAE” for “BME”, “(3ng/ml)” for “(10ng/ml)”, “activity). The second panel marked CE is a longer incubation of the gel shown in the top panel.” for “activity)”

[9] = test system: uPA mRNA; experiment: Northern blot analysis, uPA mRNA, BME cells; conditions: 10µM, after 9 hours
Method: (§3) (±)-8-Prenylnaringenin or genistein were added to confluent BME cell monolayers to which fresh medium containing 5% DCS had been added 24 hours previously. Total cellular RNA was prepared after the indicated times using Trizol reagent (Life Technologies AG, Basel, Switzrland) according to the manufacturer's instructions. Northern blots, UV cross-linking and methylene blue staining of filters, in vitro transcription, hybridization and post-hybridization washes were as previously described (Pepper et al., 1990, J. Cell Biol. 111: 743-755). […] Autoradiograms were scanned and quantitated using ImageQuant (Molecular Dynamics, Sunnyvale, CA).
(§4) Replicate filters containing total cellular RNA (5 µg/lane) prepared from confluent monolayers of BME cells incubated in the absence (Control) or presence of 10µM (±)-8-prenylnaringenin for the indicated times, were hybridized with ^32P-labelled cRNA probes. RNA integrity and uniformity of loading were determined by staining the filters with methylene blue after transfer and cross-linking (lower panel of the figure); 28S and 18S ribosomal RNAs are shown.

[10] = test system: uPAR mRNA; experiment: Northern blot analysis, uPAR mRNA, BME cells; conditions: 10µM, after 9 hours
Method: as §3, §4

[11] = test system: tPA mRNA; experiment: Northern blot analysis, tPA mRNA, BME cells; conditions: 10µM, after 9 hours
Method: as §3, §4

[12] = test system: PAI-1 mRNA; experiment: Northern blot analysis, PAI-1 mRNA, BME cells
Method: (§5) (±)-8-Prenylnaringenin or genistein were added to confluent BME cell monolayers to which fresh medium containing 5% DCS had been added 24 hours previously. Total cellular RNA was prepared after the indicated times using Trizol reagent (Life Technologies AG, Basel, Switzrland) according to the manufacturer's instructions. Northern blots, UV cross-linking and methylene blue staining of filters, in vitro transcription, hybridization and post-hybridization washes were as previously described (Pepper et al., 1990, J. Cell Biol. 111: 743-755). [^32P]-labelled cRNA probes were prepared from bovine urokinase-type plasminogen activator (u-PA) (Krätzschmar et al., 1993, Gene 125: 177-183), bovine u-PA receptor (u-PAr) (Krätzschmar et al., 1993, Gene 125: 177-183), human tissue-type PA (t-PA) (Fisher et al., 1985, J. Biol. Chem. 260: 11223-11230) and bovine PA inhibitor-1 (PAI-1) (Pepper et al., 1990, J. Cell Biol. 111: 743-755) cDNAs as previously described (Pepper et al., 1990, J. Cell Biol. 111: 743-755). Filters were exposed to Kodak X-OMAT XAR-5 Scientific Imaging Film (Eastman Kodak Co., Rochester, NY). Autoradiograms were scanned and quantitated using ImageQuant (Molecular Dynamics, Sunnyvale, CA).

[13] = test system: uPA mRNA; experiment: Northern blot analysis, uPA mRNA, BAE cells
[14] = test system: uPAR mRNA; experiment: Northern blot analysis, uPAR mRNA, BAE cells
Method: as §5

[15] = test system: tPA; experiment: Northern blot analysis, tPA mRNA, BAE cells; conditions: after 24 hours
[16] = test system: BME cells; experiment: Toxicity observed in BME cell cultures

Compound: CC(C)=CCc1c(O)cc(O)c2c1OC(c1ccc(O)cc1)CC2=O (racemic) [8-Prenylnaringenin, 5,7-Dihydroxy-2-(4-hydroxyphenyl)-8-(3-methylbut-2-enyl)-chroman-4-on]
- in vitro angiogenesis induced by bFGF, VEGF or a combination of the bFGF and VEGF ([1]; BME cells, collagen gel): inhibits
- IC50 ([1]; Bos taurus, induced by bFGF (10ng/ml), VEGF (30ng/ml) or both, irrespective of the angiogenic stimulus, read-out: IC50 of inhibition of BME cell invasion): 3 to 10 µM
- inhibition at 30 µM ([2]; absence of bFGF): 67%
- inhibition at 30 µM ([2]; presence of bFGF (10ng/ml)): 75%
- IC50 ([2]; 120 h, 5 day assay, 5% DCS, with or without bFGF, read-out: IC50 of inhibition of BME cell proliferation (cell number)): ~10 µM
- uPA activity [3]: dose-dependent increase
- tPA activity ([4]; 15 hours, serum-free): dose-dependent increase
- induction of tPA activity, combination with VEGF ([4]; with VEGF, data not shown): synergize
- induction of tPA activity, effect of bFGF co-treatment ([4]; with bFGF (10ng/ml)): potentiates
- PAI-1 activity [5]: reduction
- uPA activity ([6]; 15 hours, serum-free): increased
- bFGF-induced uPA activity ([6]; with bFGF (3ng/ml)): reduces
- tPA activity ([7]; 15 hours, serum-free): increased
- induction of tPA activity, effect of bFGF co-treatment ([7]; with bFGF (3ng/ml)): potentiates
- PAI-1 [8]: decrease
- uPA mRNA steady state level, maximal effect [9]: 7.5 fold increase
- uPAR mRNA steady state level, maximal effect [10]: 6.4 fold increase
- tPA mRNA steady state level, maximal effect [11]: 9.6 fold increase
- levels of PAI-1 mRNA [12]: no significant effect
- uPA mRNA levels [13]: virtually no effect
- uPAR mRNA levels [14]: virtually no effect
- tPA levels [15]: 4.6 fold increase
- concentration at which frank toxicity was observed ([16]; 15 hours, absence of serum): 30 µM
- concentration at which toxicity was seen ([16]; presence of 2% serum): 100 µM
